From patent publication US20090222938A1, “Therapeutic Target Molecules For The Development of Novel Medicaments for Degenerative Diseases” (Neuroprofile GMBH, priority 2006, published 2009)

Experiments:
Type in all cases: cell-based
[1] = test system: MAC30-mRNA in NT2-N neuron cells; test: MAC30 mRNA quantitative real-time RT-PCR (SYBR Green 1) after stressor treatment
Text: The MAC30-mRNA increase may be quantified by a quantitative real-time RT-PCR analysis (qRTRTPCR) with fluorescence labelling by SYBR Green 1.

[2] = test system: BRI3-mRNA in NT2-N neurons; test: BRI3 mRNA quantitative real-time RT-PCR after stressor treatment
Text: This increase may be quantified by means of a quantitative real-time RT-PCR analysis (qRTRTPCR) with fluorescence labelling by SYBR Green 1.

[3] = test system: LOC222171-mRNA in NT2-N neurons; test: LOC222171 mRNA quantitative real-time RT-PCR after stressor treatment; settings: 15 days of treatment
Text: This increase was quantified by means of a quantitative real time RT-PCR analysis (qRTRTPCR) featuring fluorescence labelling by SYBR-Green 1. […] The PCR primer pair LOC222171-For1 (5′-[sequence]-3′) (SEQ ID NO: 120) and LOC222171-Rev2 (5′-[sequence]-3′) (SEQ ID NO: 121) is suitable for the analysis of the LOC222171 mRNA by means of qRTRTPCR.

[4] = test system: SCD-mRNA in NT2-N neurons; test: SCD mRNA quantitative real-time RT-PCR after stressor treatment; settings: 15 day treatment
[5] = test system: NPC2-mRNA in NT2-N neurons; test: NPC2 mRNA quantitative real-time RT-PCR after stressor treatment
[6] = test system: NT2-N neuron cells; test: Live/Dead-Viability/Cytotoxicity Assay, survival of neurons under chronic sublethal oxidative stressor; settings: stressor 1.0-25 μM, serum-free; more than 3 days after the time point of sampling
Text: The increase of MAC30-mRNA in NT2-N neuron cells (Andrews P. W., Dev. Biol., 103, pp 285-293, 1984; Pleasure S. J., Page C., Lee V. M.-Y., J. Neurosci., 12, pp 1802-1815, 1992) has been detected in microarray analyses using fluorescence-labelled cDNA after treating the cells under serum-free conditions with chronic sublethal concentrations of the oxidative stressor haloperidol (Sigma; catalogue No. H-1512). Appropriate conditions for an optimal survival rate of the cells were obtained by means of the Live/Dead-Viability/Cytotoxicity Assay (Molecular Probes) according to the manual of the manufacturer. […] 2′,7′-dichlorodihydrofluorescein-diacetate (Sigma, catalogue No. D6883) was used for determining total cell quantity of ROS. […] Subsequently, the cells were homogenized by sonication, centrifugated (20 minutes, 4° C., 20.000×g), and the fluorescence of the supernatant was measured. […] The relative increase of ROS was calculated in relation to the control. Further, ROS was determined by means of dihydroethidium (DHE; Sigma catalogue No. D7008). 5 μM DHE was added into an aliquot of the scraped cells, incubated for 1 hour at 37° C., processed analogous to the DCFDA procedure, and the fluorescence of the supernatant was determined. The protein adjusted alteration of mitochondrial ROS was calculated in relation to the untreated control. […]

[7] = test system: IDI1 protein in NT2-N neurons; test: IDI1 protein quantity by two dimensional polyacrylamid gel electrophoresis and mass spectrometric identification; settings: 15 day treatment
Text: The increase of the IDI1 protein (IDI1=Isopentenyl-diphosphate delta isomerase 1; =Isopentenyl diphosphate dimethylallyl diphosphate isomerase 1) was detected with a two dimensional polyacrylamid gel electrophoresis after treatment of NT2-N neurons with haloperidol (as described in example 1) and subsequent mass spectrometric identification of the protein spot.

[8] = test system: CUEDC1-mRNA in NT2-N neurons; test: CUEDC1 mRNA quantitative real-time RT-PCR after stressor treatment; settings: 15 days of chronic oxidative stress
Text: This increase was further quantified by means of a quantitative real time RT-PCR analysis (qRTRTPCR) with fluorescence labelling by SYBR-Green 1. […] The PCR primer pair CUEDC1-For1 (5′-[sequence]-3′) (SEQ ID NO: 122) and CUEDC1-Rev2 (5′-[sequence]-3′) (SEQ ID NO: 123) is suitable for the analysis of the CUEDC1 mRNA by means of qRTRTPCR.

[9] = test system: G1P3-mRNA in NT2-N neurons; test: G1P3 mRNA quantitative real-time RT-PCR after stressor treatment
Text: The increase was quantified by means of a quantitative real-time RT-PCR analysis (qRTRTPCR) with fluorescence labeling by SYBR Green 1. […] The PCR primer pair G1P3-For1 (5′-[sequence]-3′) (SEQ ID NO: 118) and GIP3-Rev2 (5′-[sequence]-3′) (SEQ ID NO: 119) is suitable for the analysis of the G1P3 mRNA by means of qRTRTPCR.

[10] = longer treatment, 'may achieve up to ... or more'

O=C(CCCN1CCC(O)(c2ccc(Cl)cc2)CC1)c1ccc(F)cc1 [haloperidol]
MAC30-mRNA increase ([1]; 8-day treatment, 1.0-25 μM): at least 50% | MAC30-mRNA increase [1, 10]: ≥ 200% | BRI3-mRNA increase ([2]; 8-day treatment): ≥ 40% | BRI3-mRNA increase ([2]; 3 days after treatment): increase can be detected | BRI3-mRNA increase [2, 10]: ≥ 200% | LOC222171-mRNA increase [3]: ≥ 50% | SCD-mRNA increase in comparison to untreated neurons [4]: ≥ 50% | NPC2-mRNA increase ([5]; 15 days of chronic sublethal oxidative stress): ≥ 50% | NPC2-mRNA increase in comparison to untreated neurons ([5]; after 3 days): significant increase | neurons alive [6]: More than 75% | IDI1-protein quantity increase [7]: ≥ 30% | CUEDC1-mRNA increase [8]: more than 30% | G1P3-mRNA increase ([9]; 8-day treatment): ≥ 50% | G1P3-mRNA increase ([9]; after 3 days): marked increase | G1P3-mRNA increase [9, 10]: ≥ 400%
